Data from patent US20230218644A1, “COMPOUNDS FOR USE IN THE TREATMENT OF VIRAL INFECTIONS BY RESPIRATORY SYNDROME-RELATED CORONAVIRUS” (SOM INNOVATION BIOTECH, S.A., priority 2020, published 2023).

Legend:
SARS-CoV-2 3CLpro = SARS-CoV-2 3CLpro (Severe acute respiratory syndrome coronavirus 2, UniProt P0DTD1); assay: biochemical; type: biochemical; details: for inhibition activity against SARS-CoV-2 3CLpro in vitro (in words): FRET assay, 30 tested compounds
SARS-CoV-2 = assay: microbe, parasite or virus in culture; type: cell-based; details: Severe acute respiratory syndrome coronavirus 2, Vero C1008, read-out: IC50 of inhibition of cell infection
MERS-CoV 3CLpro = MERS-CoV 3CLpro (Middle East respiratory syndrome-related coronavirus, UniProt K9N7C7); assay: biochemical
Chain of MERS-CoV 3CLpro (K9N7C7 3248-3553 limits assumed): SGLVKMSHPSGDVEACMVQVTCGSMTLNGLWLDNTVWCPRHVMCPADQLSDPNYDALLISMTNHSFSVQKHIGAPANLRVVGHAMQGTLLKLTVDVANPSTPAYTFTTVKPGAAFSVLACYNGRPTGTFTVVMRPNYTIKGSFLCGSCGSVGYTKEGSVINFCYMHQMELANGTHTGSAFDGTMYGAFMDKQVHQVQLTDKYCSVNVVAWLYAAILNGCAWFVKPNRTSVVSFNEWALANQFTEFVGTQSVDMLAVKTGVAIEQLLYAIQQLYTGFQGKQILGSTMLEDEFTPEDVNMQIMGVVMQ

SARS-CoV-2 protease = SARS-CoV-2 protease (Severe acute respiratory syndrome coronavirus 2, UniProt P0DTD1); details: Fu et al., Nature Comm. 2020; cited from earlier work
SARS-CoV-2 virus = details: Vero E6 cells; Choy K. et al, Antivir. Res. 2020; read-out: IC50 antiviral effect; cited from earlier work

Q: For `CCOC(=O)/C=C/[C@H](C[C@@H]1CCNC1=O)NC(=O)[C@@H](CC(=O)[C@@H](NC(=O)c1cc(C)on1)C(C)C)Cc1ccc(F)cc1`, which “inhibition activity against SARS-CoV-2 3CLpro in vitro (in words)” value (SARS-CoV-2 3CLpro) is on record?
A: not active in vitro

Q: With `CCN(CC)CCCC(C)Nc1ccnc2cc(Cl)ccc12` (racemic) [chloroquine, (RS)-N′-(7-chloroquinolin-4-yl)-N,N-diethyl-pentane-1,4-diamine] as the compound, how does the “cytotoxicity / cell viability (in words)” value (VeroE6 cells) read?
A: significant cytotoxicity

Q: And the IC50 (SARS-CoV-2)?
A: ~12 µM

Q: For `O=C(/C=C/c1ccc(O)c(O)c1)OC1CC(OC(=O)/C=C/c2ccc(O)c(O)c2)(C(=O)O)CC(O)C1O` (stereo not drawn) [CYNARIN, 1,3-bis[[(E)-3-(3,4-dihydroxyphenyl)prop-2-enoyl]oxy]-4,5-dihydroxycyclohexane-1-carboxylic acid], which IC50 (MERS-CoV 3CLpro) is on record?
A: 16.7 µM

Q: What about the IC50 (SARS-CoV-2 3CLpro) of the same compound?
A: 1.81 µM

Q: What about the “inhibition activity against SARS-CoV-2 3CLpro in vitro (in words)” value (SARS-CoV-2 3CLpro) of the same compound?
A: active in vitro

Q: Which results are given for `CN(C)[C@@H]1C(O)=C(C(N)=O)C(=O)[C@@]2(O)C(O)=C3C(=O)c4c(O)c(NC(=O)CN5CCCC5)cc(F)c4C[C@H]3C[C@@H]12` [ERAVACYCLINE diHcl, (4S,4aS,5aR,12aS)-4-(Dimethylamido)-7-fluoro-3,10,12,12a-tetrahydroxy-1,11-dioxo-9-[(1-pyrrolidinylacetyl)amino]-1,4,4a,5,5a,6,11,12a-octahydro-2-tetracenecarboxamide]?
A: cytotoxicity / cell viability (in words) (VeroE6 cells): without affecting cell viability; IC50 (MERS-CoV 3CLpro): 16.4 µM; IC50 (SARS-CoV-2 3CLpro): 1.65 µM; inhibition activity against SARS-CoV-2 3CLpro in vitro (in words) (SARS-CoV-2 3CLpro): active in vitro; IC50 (SARS-CoV-2): 30.6 µM

Q: Which results are given for `COc1cccc(OCCCN)c1-c1cc(Nc2cnc(C#N)cn2)n[nH]1` [PREXASERTIB diHCl, 5-((5-(2-(3-Aminopropoxy)-6-methoxyphenyl)-1H-pyrazol-3-yl)amino)-2-pyrazinecarbonitrile]?
A: IC50 (MERS-CoV 3CLpro): 12.4 µM; IC50 (SARS-CoV-2 3CLpro): 2 µM; inhibition activity against SARS-CoV-2 3CLpro in vitro (in words) (SARS-CoV-2 3CLpro): active in vitro

Q: With `CC(C)C[C@H](NC(=O)[C@H](CCc1ccccc1)NC(=O)CN1CCOCC1)C(=O)N[C@@H](Cc1ccccc1)C(=O)N[C@@H](CC(C)C)C(=O)[C@@]1(C)CO1` [carfilzomib] as the compound, how does the “inhibition of SARS-CoV-2 protease (in words)” value (SARS-CoV-2 protease) read?
A: failed to inhibit

Q: Which IC50 (SARS-CoV-2 virus) does the source give for `CC[C@H]1CN2CCc3cc(OC)c(OC)cc3[C@@H]2C[C@@H]1C[C@H]1NCCc2cc(OC)c(OC)cc21` [emetine] here?
A: 0.46 µM

Q: For `COC(=O)C[C@](O)(CCCC(C)(C)O)C(=O)O[C@@H]1C(OC)=C[C@]23CCCN2CCc2cc4c(cc2[C@H]13)OCO4` [homorringtonine, 1-((1S,3aR,14bS)-2-Methoxy-1,5,6,8,9,14b-hexahydro-4H-cyclopenta(a)(1,3)dioxolo(4,5-h)pyrrolo(2,1-b)(3)benzazepin-1-yl) 4-methyl (2R)-2-hydroxy-2-(4-hydroxy-4-methylpentyl)butanedioate], which IC50 (SARS-CoV-2 virus) is on record?
A: 2.55 µM

Q: Which IC50 (SARS-CoV-2) does the source give for `CCC(CC)COC(=O)[C@H](C)N[P@](=O)(OC[C@H]1O[C@@](C#N)(c2ccc3c(N)ncnn23)[C@H](O)[C@@H]1O)Oc1ccccc1` [remdesivir, (2S)-2-{(2R,3S,4R,5R)-[5-(4-Aminopyrrolo[2,1-f][1,2,4]triazin-7-yl)-5-cyano-3,4-dihydroxy-tetrahydro-furan-2-ylmethoxy]phenoxy-(S)-phosphorylamino}propionic acid 2-ethyl-butyl ester] here?
A: ~12 µM
